Structures are written as SMILES.

The test system of assay [1] is AML cells. Briefly: Growth inhibition of AML cells in vitro. The class given is cell-based, human. Particulars: single fraction, dose 100 μg/ml, 48 hrs. Here is the method: (§1) Whole blood (10 ml) was drawn from a previously diagnosed CD33+ myeloid leukemic patient and mononuclear cells were separated by Ficoll/hypaqal density gradient centrifugation.
(§2) Incubation of PBMC of myeloid leukemia patients with purified compound 3-O-p-coumaryl quinic acid in vitro. PBMC (2×10^6/ml) of myeloid leukemia patients were incubated with varied concentrations of purified compound for 48 h. Cells were then washed, and counted for viability.
Incubation of myeloid leukemic cells with fractions having retention time 3.60 (fraction-1) and 24.00 min (fraction 9). PBMC of myeloid leukemic patients were incubated with above-mentioned fractions, alone or in combination of the two for 48 hrs. Cells were then washed and counted for viability.

In assay [2] the test system is CD33+ myeloid leukemia cells. Nature of the assay: Destruction of CD33+ myeloid leukemia cells (patient PBMC) in vitro, viability count and flow cytometry. The class given is cell-based, human. Conditions: purified compound, varied concentrations, 48 h. Here is the method:
as §1
Incubation of PBMC of myeloid leukemia patients with crude Piper betel extract. PBMC (2×10^6/ml) of myeloid leukemia patients were incubated with Piper betel extract (10.0 mg/ml) for 48 hours and then washed and counted for viability.
Incubation of PBMC of myeloid leukemia patients with fraction E in vitro. PBMC (2×10^6/ml) of myeloid leukemia patients were incubated with varied concentrations of fraction E for 48 hours. Cells were then washed and counted for viability.
as §2
Flow cytometry of myeloid leukemia cells; Myeloid leukemia cells before and after in vitro incubation with crude Piper betel extract, purified fraction E or purified 3-O-p-coumaryl quinic acid were marked with anti-CD33-FITC and anti-CD13-PE monoclonal antibodies. Cells were then analysed in a flow cytometer (FACS Calibur, Bection Dickinson, USA).
In general terms: A flow cytometer gives signals particle by particle.

Turning to `O=C(C=Cc1ccc(O)cc1)OC1CC(O)(C(=O)O)CC(O)C1O` (centres unmarked) [3-O-p-coumaryl quinic acid], in assay [1], the “% Inhibition of growth” value came out at 54.00%. The “effect on PBMC of CD33+ myeloid leukemia patients (both AML and CML)” value in assay [2] is listed as “destroyed”.

By % Inhibition of growth is commonly meant the drop in the measured response relative to a control, in per cent.

The record behind these values is patent publication US7306817B2, “Herbal composition for treating CD33+ acute and chronic myeloid leukemia and a method thereof” (Council of Scientific and Industrial Research, priority 2000, dated 2007).
